According to patent US20070111216A1 (priority 2004, published 2007):

Legend:
Format in all cases: biochemical
[1] = target: T1, E. coli RNA Polymerase Core Enzyme (Escherichia coli, UniProt P0A8T7+P0A8V2); experiment: Rolling circle transcription on circular 45mer ssDNA monitored in real time (SYBR Gold) and by gel electrophoresis; details: 20 μg/ml α-amanitin, 10 min preincubation at 37° C., 0.5 mM each NTP, about 1.5 hours (FIG. 4)
T1 construct: purchased EPICENTRE
Experimental: A single-stranded circularized 45mer DNA molecule having the same sequence as the circular 45mer used in Example 1 (Sequence I.D. No. 1) was obtained.
A reaction mixture was prepared containing 0.5 units of E. coli RNA Polymerase Core Enzyme, and a reaction buffer. The reaction mixture was incubated in the presence of 1 μM rifampicin, 20 U TAGETIN (Epicentre Biotechnologies), or 20 μg/ml α-amanitin for 10 min at 37° C. Subsequently, 0.8 pmole of the circularized 45mer DNA oligomer were added to the reaction mixture followed by incubation for 5 min at 37° C. Then SYBR Gold (Molecular Probes), which had been diluted 1:20,000, was added. Subsequently, ATP, CTP, GTP and UTP were added such that the concentration of each NTP was 0.5 mM in the final reaction mixture. Fluorescence was measured for about 1.5 hours in an iCycler iQ real-time PCR detection system (Bio-Rad Laboratories) using 490 nm excitation and 530 nm emission wavelengths. Afterwards, the reaction products were analyzed by gel electrophoresis.

[2] = target: T2, E. coli RNA polymerase Holoenzyme (Escherichia coli, UniProt P0A8T7+P0A8V2); experiment: Rolling circle transcription on circular 38mer ssDNA, products visualized by agarose gel electrophoresis; details: 37° C. for 2 hours, 0.5 mM each NTP, concentration of inhibitor not printed (FIG. 2)
T2 construct: purchased EPICENTRE
Experimental: (§1) A single-stranded circularized 38mer DNA molecule having the same sequence as the circular 38mer used in Example 2 (Sequence I.D. No. 2) was obtained.
(§2) A reaction mixture was prepared comprising 5 pmoles of the circularized 38mer DNA molecule, 1 unit of E. coli RNA Polymerase Holoenzyme (EPICENTRE) or of soy germ RNA polymerase II, 0.5 mM of each NTP and a reaction buffer. The reaction mixture was incubated at 37° C. for 2 hours in the presence or absence of rifampicin or α-amanitin. The reaction products were visualized by agarose gel electrophoresis.

[3] = test system: soy germ RNA polymerase II; experiment: as above; details: 37° C. for 2 hours, 0.5 mM each NTP, concentration of inhibitor not printed (FIG. 2)
Experimental: as §1, §2

T2 sequence (P0A8V2 whole entry): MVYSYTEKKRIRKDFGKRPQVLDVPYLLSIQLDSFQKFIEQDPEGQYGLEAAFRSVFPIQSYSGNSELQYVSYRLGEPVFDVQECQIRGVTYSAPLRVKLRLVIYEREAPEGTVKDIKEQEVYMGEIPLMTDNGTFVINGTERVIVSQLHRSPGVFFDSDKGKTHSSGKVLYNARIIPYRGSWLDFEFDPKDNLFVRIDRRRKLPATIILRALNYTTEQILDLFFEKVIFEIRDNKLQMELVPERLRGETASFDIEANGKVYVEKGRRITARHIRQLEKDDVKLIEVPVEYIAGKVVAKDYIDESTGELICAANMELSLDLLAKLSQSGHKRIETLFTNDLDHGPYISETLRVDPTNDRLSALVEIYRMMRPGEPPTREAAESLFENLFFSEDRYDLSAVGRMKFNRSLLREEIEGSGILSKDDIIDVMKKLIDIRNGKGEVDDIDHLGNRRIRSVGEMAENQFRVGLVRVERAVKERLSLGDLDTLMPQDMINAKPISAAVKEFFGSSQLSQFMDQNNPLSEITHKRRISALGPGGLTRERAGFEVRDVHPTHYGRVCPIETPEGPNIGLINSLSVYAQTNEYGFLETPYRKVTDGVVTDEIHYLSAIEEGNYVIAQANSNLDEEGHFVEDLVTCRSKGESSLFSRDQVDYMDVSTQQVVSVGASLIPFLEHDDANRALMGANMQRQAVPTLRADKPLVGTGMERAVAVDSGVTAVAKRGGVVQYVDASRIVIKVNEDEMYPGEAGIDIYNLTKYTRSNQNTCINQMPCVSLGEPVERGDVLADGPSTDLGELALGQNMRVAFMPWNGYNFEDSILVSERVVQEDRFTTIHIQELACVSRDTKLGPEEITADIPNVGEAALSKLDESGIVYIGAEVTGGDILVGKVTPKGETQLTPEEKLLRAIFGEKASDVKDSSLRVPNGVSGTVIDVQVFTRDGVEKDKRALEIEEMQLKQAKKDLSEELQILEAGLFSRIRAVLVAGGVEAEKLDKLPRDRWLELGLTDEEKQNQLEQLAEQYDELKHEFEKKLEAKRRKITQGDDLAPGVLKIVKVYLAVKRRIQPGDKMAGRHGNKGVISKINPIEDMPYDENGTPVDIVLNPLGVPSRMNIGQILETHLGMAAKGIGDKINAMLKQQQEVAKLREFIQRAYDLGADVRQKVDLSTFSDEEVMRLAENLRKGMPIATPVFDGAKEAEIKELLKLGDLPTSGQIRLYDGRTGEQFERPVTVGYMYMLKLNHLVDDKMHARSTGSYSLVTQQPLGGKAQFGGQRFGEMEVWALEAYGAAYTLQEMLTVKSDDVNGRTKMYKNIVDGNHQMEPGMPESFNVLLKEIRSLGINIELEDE
T2 sequence (P0A8T7 whole entry): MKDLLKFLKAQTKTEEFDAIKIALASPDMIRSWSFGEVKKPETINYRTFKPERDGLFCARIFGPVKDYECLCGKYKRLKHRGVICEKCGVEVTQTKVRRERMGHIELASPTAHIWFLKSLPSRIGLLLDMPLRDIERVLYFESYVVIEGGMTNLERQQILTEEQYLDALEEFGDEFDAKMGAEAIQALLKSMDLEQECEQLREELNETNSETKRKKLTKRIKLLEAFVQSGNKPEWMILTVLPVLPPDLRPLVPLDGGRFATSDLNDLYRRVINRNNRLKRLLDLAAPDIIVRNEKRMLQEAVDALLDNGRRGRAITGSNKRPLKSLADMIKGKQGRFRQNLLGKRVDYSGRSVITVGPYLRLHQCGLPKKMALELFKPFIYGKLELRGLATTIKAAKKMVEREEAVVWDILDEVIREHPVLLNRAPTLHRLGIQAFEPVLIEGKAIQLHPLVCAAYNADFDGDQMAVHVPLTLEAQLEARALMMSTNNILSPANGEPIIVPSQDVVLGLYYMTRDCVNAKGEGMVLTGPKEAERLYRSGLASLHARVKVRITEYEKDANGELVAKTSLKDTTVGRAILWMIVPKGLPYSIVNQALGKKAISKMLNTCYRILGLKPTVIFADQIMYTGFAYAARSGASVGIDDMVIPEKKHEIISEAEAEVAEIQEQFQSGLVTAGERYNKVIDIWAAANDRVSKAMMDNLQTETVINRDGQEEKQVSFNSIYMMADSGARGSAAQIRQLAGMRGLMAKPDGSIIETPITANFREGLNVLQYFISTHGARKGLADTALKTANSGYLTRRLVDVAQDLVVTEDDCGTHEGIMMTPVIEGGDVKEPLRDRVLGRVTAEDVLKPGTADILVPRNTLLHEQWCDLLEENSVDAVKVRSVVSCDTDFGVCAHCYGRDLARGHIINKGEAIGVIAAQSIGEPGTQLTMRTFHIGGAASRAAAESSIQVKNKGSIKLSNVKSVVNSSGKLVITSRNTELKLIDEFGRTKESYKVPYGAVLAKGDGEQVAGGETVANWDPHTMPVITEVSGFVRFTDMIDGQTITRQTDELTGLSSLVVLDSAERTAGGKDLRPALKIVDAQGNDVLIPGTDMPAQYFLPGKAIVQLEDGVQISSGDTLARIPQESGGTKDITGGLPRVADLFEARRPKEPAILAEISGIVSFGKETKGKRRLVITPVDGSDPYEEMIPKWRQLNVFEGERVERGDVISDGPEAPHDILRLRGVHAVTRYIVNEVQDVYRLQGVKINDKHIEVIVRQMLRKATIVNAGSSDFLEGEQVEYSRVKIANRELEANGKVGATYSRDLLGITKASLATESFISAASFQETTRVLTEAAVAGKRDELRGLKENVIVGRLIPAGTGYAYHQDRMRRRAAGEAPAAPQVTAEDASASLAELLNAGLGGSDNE
T2 sequence (P0A7Z4 whole entry partner): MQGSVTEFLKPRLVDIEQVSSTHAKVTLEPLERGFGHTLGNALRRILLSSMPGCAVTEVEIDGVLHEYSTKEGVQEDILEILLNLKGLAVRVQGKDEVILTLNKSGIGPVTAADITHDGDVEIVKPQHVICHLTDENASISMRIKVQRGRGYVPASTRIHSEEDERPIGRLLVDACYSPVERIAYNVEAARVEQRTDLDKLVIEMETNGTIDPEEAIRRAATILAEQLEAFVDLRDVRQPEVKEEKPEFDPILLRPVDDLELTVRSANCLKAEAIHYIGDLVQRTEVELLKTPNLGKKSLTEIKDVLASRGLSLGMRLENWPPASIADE
T2 sequence (P0A800 2-91 partner limits assumed): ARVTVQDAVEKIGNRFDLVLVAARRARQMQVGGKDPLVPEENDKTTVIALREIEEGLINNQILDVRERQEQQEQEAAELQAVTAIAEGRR
T2 sequence (P00579 whole entry partner): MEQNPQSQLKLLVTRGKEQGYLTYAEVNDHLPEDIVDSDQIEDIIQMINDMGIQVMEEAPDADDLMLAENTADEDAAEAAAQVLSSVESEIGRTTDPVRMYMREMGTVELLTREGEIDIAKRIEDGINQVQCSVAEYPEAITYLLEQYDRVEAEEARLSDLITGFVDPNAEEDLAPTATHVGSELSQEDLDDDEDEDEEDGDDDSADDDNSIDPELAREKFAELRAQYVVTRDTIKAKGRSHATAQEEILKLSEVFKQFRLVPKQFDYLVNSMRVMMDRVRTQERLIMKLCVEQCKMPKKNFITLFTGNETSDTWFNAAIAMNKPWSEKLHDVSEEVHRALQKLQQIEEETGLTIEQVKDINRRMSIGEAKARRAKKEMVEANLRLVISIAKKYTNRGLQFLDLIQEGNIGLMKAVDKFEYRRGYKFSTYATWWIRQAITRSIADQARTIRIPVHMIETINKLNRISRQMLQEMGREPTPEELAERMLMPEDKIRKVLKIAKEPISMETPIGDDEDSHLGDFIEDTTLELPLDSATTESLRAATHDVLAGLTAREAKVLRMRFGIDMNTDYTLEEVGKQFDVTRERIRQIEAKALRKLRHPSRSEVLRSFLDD

For `CC[C@H](C)[C@@H]1NC(=O)CNC(=O)[C@@H]2Cc3c([nH]c4cc(O)ccc34)[S+]([O-])C[C@@H](NC(=O)CNC1=O)C(=O)N[C@@H](CC(N)=O)C(=O)N1C[C@H](O)C[C@H]1C(=O)N[C@@H]([C@@H](C)[C@@H](O)CO)C(=O)N2` (stereo in doubt) [α-amanitin], the “RNA synthesis in the presence of inhibitor” value [1] was “RNA was synthesized”, the “Inhibition of RNA polymerase activity” value [2] was “no inhibition” and the “Inhibition of RNA polymerase activity” value [3] was “Inhibitory effects”.
